In US20080293785A1, “SUBSTITUTED BENZOTHIAZOLE KINASE INHIBITORS” (priority 2006, published 2008) one finds IC50 data, which are given here for 6 compounds.

What is called IC50 is the concentration needed to halve the response being measured.

The target of one assay is T1, CDK1:Cyclin-B (Homo sapiens, UniProt P06493).
T1 construct: purchased New England Biolabs, Beverly, Mass; 6020; host or cells: insect cells
Put plainly: CDK1 Screening Assay. The format is biochemical. The settings on record: 10 μM ATP, biotinylated histone-H1 peptide substrate, 33P-γ-ATP FlashPlate; read-out: Kinase IC50 CDK1.

The target of the next assay is T2, CDK2:Cyclin A (Homo sapiens, UniProt P24941).
T2 construct: purchased Upstate Biotech, Lake Placid, N.Y
The assay is described as follows: CDK2 Screening Assay. The assay is classed as biochemical. To be noted: 10 μM ATP, biotinylated histone-H1 peptide substrate, 33P-γ-ATP FlashPlate; read-out: Kinase IC50 CDK2.

Another assay addresses VEGF-R2 kinase domain (Rattus norvegicus, UniProt O08775). Put plainly: VEGF-R2 Screening Assay. The format is biochemical. The settings on record: 10 μM ATP, biotinylated PLC1 peptide substrate, 33P-γ-ATP FlashPlate; read-out: Kinase IC50 VEGFR.
Assay [1] deals with HeLa cervical adenocarcinoma. The assay is described as follows: Inhibition of cell proliferation (14C-thymidine incorporation), HeLa. The assay is classed as cell-based. To be noted: Homo sapiens. On the procedure: (§1) The ability of a test compound to inhibit the proliferation of cell growth was determined by measuring incorporation of ^14C-labelled thymidine into newly synthesized DNA within the cells. This method was used on American Type Culture Collection (ATCC, Virginia) cell lines derived from carcinomas originating from several tissues such as HeLa cervical adenocarcinoma (ATCC Cat. #CCL-2), A375 malignant melanoma (ATCC Cat. #CRL-1619) and HCT-116 colon carcinoma (ATCC Cat. #CCL-247).
(§2) The carcinoma cells were trypsinized and counted. The cells (3000-8000 count) were added to each well of a 96-well CytoStar tissue culture treated scintillating microplate (Amersham #RPNQ0160) in complete medium (100 μL) and the plate was incubated in complete medium for 24 hrs at 37° C. in an […] containing 5% CO2.
Test compound (1 μL) in 100% DMSO was added to the plate test-wells with DMSO only added to control-wells. The plate is incubated in complete medium for a second 24 hr period at 37° C. in an atmosphere containing 5% CO2.
An aliquot of a solution of Methyl ^14C-thymidine (56 mCi/mmol) (NEN #NEC568 or Amersham #CFA532) in complete medium (20 uL to provide […]) was also added to each well and the plate was incubated for a third 24 hr period at 37° C. in an atmosphere containing 5% CO2.
The plate contents were discarded and the plate was washed twice with PBS (200 μL), then PBS (200 μL) was added to each well. The plate was sealed and the degree of methyl ^14C-thymidine incorporation is quantified on a Packard Top Count.
An IC50 value shown as >10 or >100 means that 50% inhibition was not observed at the highest concentration.
(Dividing cells build labelled thymidine or BrdU into new DNA.)

In the next assay the test system is HCT-116 colon carcinoma. The assay is described as follows: Inhibition of cell proliferation (14C-thymidine incorporation), HCT116. The assay is classed as cell-based. To be noted: Homo sapiens, HCT116, 14C-thymidine incorporation. On the procedure:
as §1, §2
(§3) Test compound (1 μL) in 100% DMSO was added to the plate test-wells with DMSO only added to control-wells. The plate is incubated in complete medium for a second 24 hr period at 37° C. in an atmosphere containing 5% CO2. […]
(§4) The plate contents were discarded and the plate was washed twice with PBS (200 μL), then PBS (200 μL) was added to each well. The plate was sealed and the degree of methyl ^14C-thymidine incorporation is quantified on a Packard Top Count. […]

Another assay relates to A375 malignant melanoma. Put plainly: Inhibition of cell proliferation (14C-thymidine incorporation), A375. The assay is classed as cell-based. The settings on record: Homo sapiens, A-375; A375, 14C-thymidine incorporation. The procedure:
as §1, §2, §3, §4

T1 sequence (P06493 whole entry): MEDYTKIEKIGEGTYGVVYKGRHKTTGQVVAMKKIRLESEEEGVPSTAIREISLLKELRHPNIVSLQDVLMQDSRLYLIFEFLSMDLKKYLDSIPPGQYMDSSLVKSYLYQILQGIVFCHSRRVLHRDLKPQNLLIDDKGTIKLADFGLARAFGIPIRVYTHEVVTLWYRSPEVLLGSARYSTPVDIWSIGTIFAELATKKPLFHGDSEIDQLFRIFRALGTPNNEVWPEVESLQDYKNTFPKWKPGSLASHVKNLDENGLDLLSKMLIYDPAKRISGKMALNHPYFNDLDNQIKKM
T1 sequence (P14635 whole entry partner): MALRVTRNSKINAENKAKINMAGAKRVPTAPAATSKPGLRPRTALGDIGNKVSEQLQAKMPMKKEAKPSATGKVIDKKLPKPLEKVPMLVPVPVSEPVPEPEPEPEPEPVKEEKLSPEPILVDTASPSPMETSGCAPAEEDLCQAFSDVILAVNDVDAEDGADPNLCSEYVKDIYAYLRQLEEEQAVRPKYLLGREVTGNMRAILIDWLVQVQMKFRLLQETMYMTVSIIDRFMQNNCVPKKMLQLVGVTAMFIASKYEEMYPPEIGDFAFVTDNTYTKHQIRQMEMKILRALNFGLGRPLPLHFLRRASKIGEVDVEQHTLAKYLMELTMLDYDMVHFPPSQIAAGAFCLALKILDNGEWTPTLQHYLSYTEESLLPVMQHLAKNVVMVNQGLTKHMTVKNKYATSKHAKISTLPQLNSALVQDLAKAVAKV
VEGF-R2 kinase domain, sequence (O08775 786-1343): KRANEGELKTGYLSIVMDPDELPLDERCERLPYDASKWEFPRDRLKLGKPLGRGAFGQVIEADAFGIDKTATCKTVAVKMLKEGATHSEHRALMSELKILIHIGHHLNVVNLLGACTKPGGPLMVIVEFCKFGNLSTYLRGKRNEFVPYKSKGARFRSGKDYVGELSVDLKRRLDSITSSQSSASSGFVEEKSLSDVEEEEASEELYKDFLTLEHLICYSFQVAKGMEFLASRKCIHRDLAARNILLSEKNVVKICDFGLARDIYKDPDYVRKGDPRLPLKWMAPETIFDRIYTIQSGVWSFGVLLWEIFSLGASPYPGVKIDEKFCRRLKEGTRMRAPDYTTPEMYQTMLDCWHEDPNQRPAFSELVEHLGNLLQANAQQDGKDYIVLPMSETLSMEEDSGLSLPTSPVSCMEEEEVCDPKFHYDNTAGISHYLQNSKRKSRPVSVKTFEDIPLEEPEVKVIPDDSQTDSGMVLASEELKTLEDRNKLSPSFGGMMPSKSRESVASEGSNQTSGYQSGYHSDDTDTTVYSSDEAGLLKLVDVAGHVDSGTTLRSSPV

With `O=C(Nc1ccc2nc(Nc3ccccc3)sc2c1)Nc1c(F)cccc1F` [Cpd 2, 1-(2,6-difluoro-phenyl)-3-(2-phenylamino-benzothiazol-6-yl)-urea], the IC50 (at CDK1:Cyclin-B; at CDK2:Cyclin A; at VEGF-R2 kinase domain; in assay [1]) was more than 100 µM in each case.
Take `O=C(Nc1ccccc1)Nc1cccc2nc(Nc3ccccc3)sc12` [Cpd 3, 1-phenyl-3-(2-phenylamino-benzothiazol-7-yl)-urea]: the half-inhibitory concentration (IC50) was more than 100 µM at CDK1:Cyclin-B, more than 100 µM at CDK2:Cyclin A, more than 100 µM at VEGF-R2 kinase domain and more than 10 µM in assay [1].
With `O=C(Nc1ccc(Cl)c(Cl)c1)Nc1cccc2nc(Nc3ccccc3)sc12` [Cpd 4, 1-(3,4-dichloro-phenyl)-3-(2-phenylamino-benzothiazol-7-yl)-urea], the IC50 on CDK1:Cyclin-B is more than 100 µM; on CDK2:Cyclin A, more than 100 µM; on VEGF-R2 kinase domain, more than 100 µM; in assay [1] it was more than 10 µM.
Turning to `O=C(Nc1ccccc1)Nc1cccc2sc(Nc3ccccc3)nc12` [Cpd 5, 1-phenyl-3-(2-phenylamino-benzothiazol-4-yl)-urea], the IC50 was more than 100 µM on CDK1:Cyclin-B, more than 100 µM on CDK2:Cyclin A, more than 100 µM on VEGF-R2 kinase domain and more than 10 µM in assay [1].
Turning to `O=C(Nc1c(F)cccc1F)Nc1cccc2sc(Nc3ccccc3)nc12` [Cpd 6, 1-(2,6-difluoro-phenyl)-3-(2-phenylamino-benzothiazol-4-yl)-urea], the IC50 at CDK1:Cyclin-B is more than 100 µM; at CDK2:Cyclin A it was 5.76 µM; on VEGF-R2 kinase domain, more than 100 µM; in assay [1], 72.7 µM.
In the case of `Cc1ccc(F)c(C(=O)Nc2cccc3sc(Nc4ccccc4)nc23)c1F` [Cpd 48, 2,6-difluoro-3-methyl-N-(2-phenylamino-benzothiazol-4-yl)-benzamide], the IC50 was 1.55 µM at CDK1:Cyclin-B; 0.156 µM on CDK2:Cyclin A; 4.58 µM on VEGF-R2 kinase domain; 20.6 µM in assay [1]; 5.04 µM in the assay on HCT-116 colon carcinoma; 10.4 µM in the assay with A375 malignant melanoma.
